Molecular target: S1P1 receptor (Homo sapiens (Human), UniProt P21453)
Experiment: FLIPR assay (Ca2+ response), S1P1 receptor
Type: cell-based
Conditions: receptor activity at highest dose tested (10 μM) relative to 5 nM sphingosine-1-phosphate

Sequence of S1P1 receptor (P21453 whole entry): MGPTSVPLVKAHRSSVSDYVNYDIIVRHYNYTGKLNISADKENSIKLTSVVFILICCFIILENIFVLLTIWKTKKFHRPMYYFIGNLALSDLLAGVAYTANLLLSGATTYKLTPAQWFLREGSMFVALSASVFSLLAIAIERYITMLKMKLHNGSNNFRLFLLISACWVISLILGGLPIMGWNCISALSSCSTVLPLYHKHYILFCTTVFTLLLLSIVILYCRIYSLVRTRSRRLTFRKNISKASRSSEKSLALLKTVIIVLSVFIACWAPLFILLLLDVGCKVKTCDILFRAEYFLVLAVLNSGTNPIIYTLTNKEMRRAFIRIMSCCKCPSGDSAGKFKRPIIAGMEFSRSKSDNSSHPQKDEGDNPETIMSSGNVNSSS

Row | S1P1 percent efficacy (in parenthesis) [%] | S1P1 percent efficacy (in parenthesis) (selective inhibitor table) [%] | Compound
1 | 36 |  | Cc1ccc(-c2ccc(CNCCCP(=O)(O)O)nc2-c2ccccc2)cc1 [Compound 147]
2 | 69 |  | CCCc1ccc(-c2ccc(CNCCCP(=O)(O)O)nc2-c2ccccc2)cc1 [Compound 154]
3 | 57 |  | CCc1ccc(-c2ccc(CNCCCP(=O)(O)O)nc2-c2ccccc2)cc1 [Compound 148]
4 |  | 57 | CCc1ccc(-c2ccc(CNCCCP(=O)(O)O)nc2-c2ccccc2)cc1 [drawing 165]
